# Results taken from patent publication US20160045486A1, “DOPAMINE RECEPTOR LIGANDS WITH ENHANCED DURATION OF ACTION” (priority 2008, published 2016).
# Where a name gives a salt, the structure may show the parent alone. Read-outs that look alike come from different tables or passages of the source.
# Key:
# [1] = molecular target: T1, Cloned human receptors D3 (CHO) (Homo sapiens, UniProt P35462); experiment: Binding affinity, cloned human D3 receptor (CHO)
# T1 construct: expressed in transfected cells; host or cells: CHO cells
# T1 sequence (P35462 whole entry): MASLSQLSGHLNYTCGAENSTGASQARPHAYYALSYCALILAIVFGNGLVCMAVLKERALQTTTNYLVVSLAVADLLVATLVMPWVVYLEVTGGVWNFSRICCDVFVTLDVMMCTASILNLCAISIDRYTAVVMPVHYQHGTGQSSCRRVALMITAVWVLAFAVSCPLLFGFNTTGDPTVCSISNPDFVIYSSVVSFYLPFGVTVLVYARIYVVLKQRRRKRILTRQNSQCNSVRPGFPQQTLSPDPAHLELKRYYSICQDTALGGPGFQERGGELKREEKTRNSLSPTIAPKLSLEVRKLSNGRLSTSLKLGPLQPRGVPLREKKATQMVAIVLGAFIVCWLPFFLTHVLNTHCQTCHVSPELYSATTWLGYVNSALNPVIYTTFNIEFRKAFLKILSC
# Procedure: (§1) Binding data from each assay were analyzed separately. Data were normalized by expressing the average dpm at each competitor concentration as a percentage of total binding.
# [2] = molecular target: T2, Cloned human receptors D1 (C-6); experiment: Binding affinity, cloned human D1 receptor (C-6)
# T2 construct: C-6 glioma cells expressing the rhesus macaque D1 A receptor, (C-6-m D1 A)
# Procedure: Cells were maintained in a humidified incubator at 37° C. with 5% CO2.
# [3] = molecular target: T3, Cloned human receptors D4 (CHO) (Homo sapiens, UniProt P21917); experiment: biochemical
# T3 sequence (P21917 1-419): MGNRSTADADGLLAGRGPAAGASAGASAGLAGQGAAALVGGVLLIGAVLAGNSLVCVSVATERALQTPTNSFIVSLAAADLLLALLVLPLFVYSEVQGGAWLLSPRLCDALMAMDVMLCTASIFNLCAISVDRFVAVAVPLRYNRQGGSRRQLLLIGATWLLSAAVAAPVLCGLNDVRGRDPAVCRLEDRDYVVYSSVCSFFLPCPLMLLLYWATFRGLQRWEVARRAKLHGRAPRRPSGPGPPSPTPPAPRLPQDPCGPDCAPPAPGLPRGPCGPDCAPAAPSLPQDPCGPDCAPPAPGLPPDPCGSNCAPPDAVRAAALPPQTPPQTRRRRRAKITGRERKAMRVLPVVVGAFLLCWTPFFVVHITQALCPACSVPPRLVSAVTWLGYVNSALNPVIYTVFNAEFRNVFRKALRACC
# Procedure: as §1
# [4] = molecular target: T4, Cloned human receptors D2L (C-6) (Homo sapiens, UniProt P14416); experiment: Binding affinity, cloned human D2L receptor (C-6)
# T4 construct: expressed in transfected cells; host or cells: C-6 cells
# T4 sequence (P14416 whole entry): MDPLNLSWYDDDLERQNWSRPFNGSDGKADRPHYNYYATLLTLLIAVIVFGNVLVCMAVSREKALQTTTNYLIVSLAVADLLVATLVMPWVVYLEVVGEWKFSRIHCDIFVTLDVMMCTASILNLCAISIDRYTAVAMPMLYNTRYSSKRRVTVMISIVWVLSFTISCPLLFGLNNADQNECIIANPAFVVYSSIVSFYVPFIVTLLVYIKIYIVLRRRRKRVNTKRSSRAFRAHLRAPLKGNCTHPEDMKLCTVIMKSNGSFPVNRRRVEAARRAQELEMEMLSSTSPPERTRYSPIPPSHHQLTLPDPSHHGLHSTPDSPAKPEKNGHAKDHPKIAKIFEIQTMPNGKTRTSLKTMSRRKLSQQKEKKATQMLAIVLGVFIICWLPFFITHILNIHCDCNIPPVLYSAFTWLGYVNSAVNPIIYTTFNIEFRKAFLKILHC
# Procedure: as §1
# [5] = system: non-dopamine receptors (monoamine transporters, serotonin, adrenergic, hH1, muscarinic, opioid, miscellaneous receptors); experiment: Affinity at other receptors (10 μM screen of non-dopamine receptors and transporters); conditions: 10 μM concentration; full dose-response only where >50% inhibition of binding
# [6] = system: unilateral 6-OHDA rat model; experiment: Rotation in the unilateral 6-OHDA rat model of Parkinson's disease; assay type: in vivo
# Procedure: Both drugs were administered 1 mg/kg subcutaneously (SC), and the number of rotations measured (i.e., rotations counter clockwise) over time (minutes) using the model first described by
# Ungerstedt (Ungerstedt and Arbuthnott, 1970).
# In some studies, adult male Sprague Dawley rats (200-250 g) were obtained from Charles River Breeding Laboratories (Raleigh, N.C.) or Harlan Laboratories (Indianapolis, Ind.). Rats were killed by decapitation, and the whole brains removed and chilled briefly in ice-cold saline. Brains were sliced with the aid of a dissecting block, and central striata were then dissected from two coronal sections containing the majority of this region. Tissue was frozen immediately on dry ice and stored at −70° C. until the day of the assay. In other studies, Sprague-Dawley rats weighing between ca. 175 g received unilateral injections of 6-OHDA. They were pretreated with 25 mg/kg desipramine, anesthetized with sodium pentobarbital and placed in a stereotaxic apparatus. Thirty gauge needles were lowered into the right aspects of the substantia nigra at Interaural zero +3.2 mm; lateral −2.0 mm; and dorsoventral −7.7 mm. Four μl of 0.1% ascorbic acid in sterile saline containing 8 μg of 6-OHDA were infused in each side over a period of 20 minutes using 10 μl Hamilton syringes and a Sage syringe pump. The needles were left in place two minutes after infusion to minimize withdrawal of the 6-OHDA solution with the needles. The small burr holes in the skull were plugged with bone wax, and the wound sutured. Post-operative care of these rats included observation, sweet food supplements, and gastric intubation during the aphagic period following lesion. Fourteen or more days after the lesion, rats were challenged with 1 mg/kg apomorphine, and rotations measured. […] The rats were then allowed to “wash-out” for a week between drug trials.
# [7] = molecular target: T5, cloned hD1 receptors expressed in Ltk cells (Homo sapiens, UniProt P21728); experiment: Dopamine D1 agonist activity, activation of adenylate cyclase; assay type: cell-based; conditions: FIG. 2, compared to dihydrexidine
# T5 construct: expressed in transfected cells; host or cells: Ltk cells
# T5 sequence (P21728 whole entry): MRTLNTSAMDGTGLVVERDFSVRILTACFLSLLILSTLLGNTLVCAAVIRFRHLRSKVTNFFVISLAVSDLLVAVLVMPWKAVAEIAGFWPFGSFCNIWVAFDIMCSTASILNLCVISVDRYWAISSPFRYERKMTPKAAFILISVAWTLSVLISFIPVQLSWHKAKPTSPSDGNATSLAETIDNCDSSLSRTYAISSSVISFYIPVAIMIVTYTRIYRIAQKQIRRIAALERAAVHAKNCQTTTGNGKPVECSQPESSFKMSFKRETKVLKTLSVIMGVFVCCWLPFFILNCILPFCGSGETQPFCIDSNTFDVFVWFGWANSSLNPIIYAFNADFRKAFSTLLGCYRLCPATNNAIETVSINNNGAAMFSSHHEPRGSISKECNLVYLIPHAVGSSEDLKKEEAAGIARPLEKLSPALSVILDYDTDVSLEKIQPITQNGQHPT
# Procedure: Studies were done in cloned hD1 receptors expressed in Ltk cells.
# Frozen membranes were thawed and added to assay tubes (10 μg protein/tube) containing a prepared reaction mixture [100 mM Hepes, (pH 7.4), 100 mM NaCl, 4 mM MgCl2, 2 mM EDTA, 500 μM isobutyl methylxanthine (IBMX), 0.01% ascorbic acid, 10 μM pargyline, 2 mM ATP, 5 μM GTP, 20 mM phosphocreatine, 5 units of creatine phosphokinase (CPK), 1 μM propranolol] and selected drugs. The final reaction volume was 100 μL.
# Basal cAMP activity was determined by incubation of tissue in the reaction mixture with no drug added. Tubes were assayed in duplicate and, after a 15 min incubation at 30° C., the reaction was stopped by the addition of 500 μL of 0.1 N HCl. Tubes were vortexed briefly, and then spun in a BHG HermLe Z 230 M microcentrifuge for five min at 15,000×g to precipitate particulates.
# The concentration of cAMP in each sample was determined with an RIA of acetylated cAMP, modified from that previously described. Iodination of cAMP was performed using a now-published procedure (Brown et al., 2009). […] Antibody-bound radioactivity was separated by the addition of 25 μL of BioMag rabbit, anti-goat IgG (Advanced Magnetics, Cambridge Mass.), followed by vortexing and incubation at 4° C. for 1 h. […] Supernatants were aspirated and radioactivity in the pellet was determined using an LKB Wallac gamma counter (Gaithersburg, Md.). […]
# [8] = molecular target: Cloned human receptors D5 (HEK) (Homo sapiens, UniProt P21918); experiment: biochemical
# Chain of Cloned human receptors D5 (HEK) (P21918 whole entry): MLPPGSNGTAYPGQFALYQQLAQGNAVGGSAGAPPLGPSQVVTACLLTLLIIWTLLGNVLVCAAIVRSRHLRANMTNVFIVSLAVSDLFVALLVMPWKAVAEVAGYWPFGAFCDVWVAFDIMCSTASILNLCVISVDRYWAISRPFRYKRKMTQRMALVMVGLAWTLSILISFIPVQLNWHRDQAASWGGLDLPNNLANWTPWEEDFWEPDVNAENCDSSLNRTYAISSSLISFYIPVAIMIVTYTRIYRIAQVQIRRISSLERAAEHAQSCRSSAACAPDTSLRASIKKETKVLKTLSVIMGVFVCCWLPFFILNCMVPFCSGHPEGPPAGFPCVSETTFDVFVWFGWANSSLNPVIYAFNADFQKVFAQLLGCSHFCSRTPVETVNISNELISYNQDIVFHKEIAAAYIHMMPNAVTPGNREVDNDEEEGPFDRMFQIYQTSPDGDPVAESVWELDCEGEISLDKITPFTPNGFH
# Procedure: as §1
Compound,"Ki ([1]; CHO cells, read-out: K0.5, Cloned human receptors D3 (CHO)) [nM]","Ki ([2]; C-6 cells; read-out: K0.5, Cloned human receptors D1 (C-6)) [nM]",Ki [3] [nM],Ki [4] [nM],affinity for non-dopamine receptors [5],Ki [1] [nM],"Ki ([2]; read-out: K0.5, Cloned human receptors D1 (C-6); C-6 cells) [nM]",agonist effects in presence of D1 antagonist SCH23390 ([6]; SCH23390 0.3 mg/kg),rotation in presence of D2 antagonist haloperidol ([6]; haloperidol 0.1 mg/kg),"duration of activity (rotations over time) ([6]; single subcutaneous injection of 1 mg/kg, FIG. 1)","agonist intrinsic activity and potency (adenylate cyclase, percentage of activation caused by 100 μM dopamine) [7]",Ki [8] [nM]
"Oc1cc2c(cc1O)[C@@H]1c3ccccc3CN[C@H]1CC2 (relative stereo) [dihydrexidine, trans-10,11-dihydroxy-5,6,6a,7,8,12b-hexahydrobenzo[a]phenanthridine, reference compound]",15,2.2,,,,,,,,,,
"Cc1ccc2c(c1)[C@@H]1c3cc(O)c(O)cc3CC[C@H]1NC2 (racemic) [Compound 1, Trans-2-methyl-10,11-dihydroxy-5,6,6a,7,8,12b-hexahydrobenzo[a]phenanthridine hydrochloride]",,,325,525,little affinity for most receptors,95,8,completely blocked,not blocked,activity lasting for nearly ten hours,full agonist of similar intrinsic activity and potency when compared to dihydrexidine,7
